Results reported in patent publication US8940760B2, “Pyrazolo pyridine derivatives as NADPH oxidase inhibitors” (Genkyotex SA, priority 2008, dated 2015).

Key:
NOX activity = assay: Amplex Red measurement of extracellular hydrogen peroxide (NOX activity) in DMSO-differentiated HL60 cells; type: cell-based, human; conditions: DPI at final concentration of 10 μM, 'usually'
Procedure: Human acute myeloid leukemia cell line HL-60 was cultured in RPMI 1640 (Invitrogen) supplemented with 10% heat-inactivated calf serum, 2 mM glutamine, 100 U/mL penicillin (Sigma), and 100 μg streptomycin (Sigma) at 37° C. under a humidified atmosphere of 5% CO2. HL60 differentiation to the neutrophil phenotype was triggered by adding Me2SO (final concentration 1.25% v/v for 6 days) to the culture medium.
Extracellular hydrogen peroxide was measured using Amplex UltraRed (Molecular Probes). Cells were trypsinized (1× Trypsin-EDTA), collected by centrifugation, and resuspended in HBSS supplemented with 1% glucose. Cells were seeded into black 96-well plates at a density of 50,000 cells in 200 μl testing buffer (HBSS 1% glucose containing 0.005 U/mL horseradish peroxidase (Roche) and 50 μM Amplex Red in the presence or absence of compounds according to the invention. As a control, DPI was included at a final concentration of 10 μM. The plates were placed in the fluorescent Optima Fluorescent plate reader and kept at 37° C. during 20 min. Fluorescence was measured for 15 min with excitation and emission wavelengths of 544 nm and 590 nm respectively. NOX activities were expressed as % of the activity in control cells. Residual activity of DPI-treated cells was usually <10%.

NOX activities [1] = assay: Nitroblue tetrazolium (NBT) test of intracellular and extracellular superoxide in cells; type: cell-based; conditions: DPI at final concentration of 10 μM, 'usually'
Procedure: Intracellular and extracellular superoxide was measured by a colorimetric technique using a quantitative nitroblue tetrazolium (NBT) test. SOD-inhibitable conversion of NBT to formazan, a fine blue precipitate, in the presence of superoxide anion was measured using Fluostar Optima spectrometer (BMG labtech). Following incubation with appropriate stimuli, cells were trypsinized (1× Trypsin-EDTA), collected by centrifugation, and washed with PBS to remove medium. 5×10^5 cells were plated on 48-well plates and incubated in Hank's balanced salt solution containing 0.5 mg/mL NBT with or without 800 U/mL SOD in the presence or absence of compounds according to the invention. As a control, DPI was included at a final concentration of 10 μM. After 2.5 h, cells were fixed and washed with methanol to remove non reduced NBT. The reduced formazan was then dissolved in 230 μl of 2M potassium hydroxide and in 280 μl of dimethylsulfoxide. The absorption was measured at 630 nm. For calculation, the absorbance at 630 nm was normalized for each individual well. The mean of the four blank values was substracted from each corrected value for each time point. NOX activities were expressed as % of the activity in control cells. Residual activity of DPI-treated cells was usually <10%.

NOX activities [2] = assay: Chemiluminescence (luminol) measurement of ROS in cells; type: cell-based; conditions: 'usually'
Procedure: ROS was measured using the chemiluminescent probe luminol. Cells were cultured and plated as for Amplex Red except that the Amplex Red agent was replaced by 10 μg/mL luminol (Sigma 09235). Light emission was recorded continuously at 37° C. for 60 minutes using the luminescence function of the FluoStar Optima fluorescent plate reader. The mean of the four blank values was substracted from each corrected value for each time point. NOX activities were expressed as % of the activity in control cells. Residual activity of DPI-treated cells was usually <10%.

NOX activities [3] = assay: H2DCF-DA fluorescence in TGF-β stimulated HUVEC; type: cell-based, human; conditions: HUVEC stimulated with TGF-β, 'usually'
Procedure: HUVEC are cultured in endothelial basal medium supplemented with hydrocortisone (1 μg/mL, CalbioChem), bovine brain extract (12 μg/mL), gentamicin (50 μg/mL, CalbioChem), amphotericin B (50 ng/mL, CalBioChem EGF (10 ng/mL, and 10% FCS until the fourth passage. When the fifth passage was started, cells were cultured with a lower concentration of FCS (2%) in the absence of EGF, if not indicated otherwise. All experiments were done with cells of the fifth passage. The cells were incubated with OxLDL (oxidized low-density lipoprotein) or its buffer as control for 24 h, before detection of O2^− formation.
HUVEC were plated on coverslips and made quiescent overnight in 0.5% BSA before stimulation with TGF-β. Cells were loaded for 10 minutes with 5 μM CM-H2DCFDA in phenol-red-free medium in the dark and then treated with TGF-β (R&D Systems) in the presence or absence of compounds according to the invention. Cells were then visualized by immunofluorescence microscopy after fixation and staining of the nuclei with DAPI or examined live using confocal microscopy. DCF fluorescence was visualized at an excitation wavelength of 488 nm and emission at 515 to 540 nm. […] For calculation, the absorbance at […] was normalized to absorbance at […] for each individual well. […] NOX activities were expressed as % of the activity in control cells. […]

Measured: Residual activity of DPI-treated cells (NOX activity as % of control cells)

c1ccc([I+]c2ccccc2)cc1 [DPI, Diphenyl-iodonium]
< 10%: all assays above
